This is an account of results in patent US10583141B2, “N-substituted hydroxamic acids with carbon-based leaving groups as efficient HNO donors and uses thereof” (The Johns Hopkins University, priority 2015, dated 2020).

Marks after values point to notes of the source that are not given here.

Data set [1] is described as follows: Stability (half-life of donor decomposition) via 1H NMR protocol. It is filed as physicochemical. Particulars: 5 mM donor in 10% DMSO-d6, 10% D2O, 80% H2O, phosphate buffer (0.25M) with DTPA (0.2 mM), pH 7.4, 37° C., under argon. From the text:
A ^1H NMR spectroscopy protocol was used to measure the half-life of donor decomposition by quantifying donor and the corresponding byproduct as a function of time (Guthrie, D. A.; Ho, A.; Takahashi, C. G.; Collins, A.; Morris, M.; Toscano, J. P. J. Org. Chem. 2015, 80, 1338-1348; and Guthrie, D. A.; Nourian, S.; Takahashi, C. G.; Toscano, J. P. J. Org. Chem. 2015, 80, 1349-1356). Based on distinctive chemical shifts of the compounds of the disclosure and their corresponding byproducts, the decomposition of the compounds of the disclosure and release of their byproduct was easily monitored. Utilizing this assay, the half-lives of particular compounds of the disclosure were determined under physiologically relevant conditions (Table 2).

Data set [2] is described as follows: Nitroxyl (HNO) production via N2O quantification in the headspace (GC), relative to Angeli's salt. Particulars: N2O headspace analysis, 0.1 mM, 37° C. (SEM ± 5%; n = 3). From the text:
Nitrous oxide (N2O) is produced via the dimerization and dehydration of HNO, and is the most common marker for nitroxyl production (Fukuto et al., Chem. Res. Toxicol. 18:790-801 (2005)). […] Using either nitrous oxide gas or Angeli's salt (“AS”) as a standard, the relative amounts of N2O released from compounds of the disclosure is examined via gas chromatography (“GC”) headspace analysis.
Another procedure for determining N2O released from compounds of the disclosure is as follows. A Varian CP-3800 instrument equipped with a 1041 injector, electron capture detector, and a 25 m 5 Å molecular sieve capillary column was applied for the analysis of nitrous oxide (N2O). Grade 5.0 nitrogen was used as both the carrier (8 mL/min) and the make-up (22 mL/min) gas. For all the measurements, the column oven temperature was kept constant at 150° C., and the injector oven and the detector oven were held at 200° C. and 300° C., respectively. A 100 μL gastight syringe with a sample-lock was used for all gas injections. Samples were prepared in 6 mL Wheaton Clr headspace vials with volumes pre-measured for sample uniformity (actual vial volume ranges from 5.8-6.3 mL). Vials were charged with 3 mL of phosphate buffer containing the metal chelator, diethylenetriaminepentaacetic acid (DTPA), and fit with rubber septa and 20 mm aluminum seals. The vials were purged with argon and equilibrated for at least 10 minutes at 37° C. in a dry block heater. A 10 mM stock solution of Angeli's salt (AS) was prepared in 10 mM sodium hydroxide, and compounds of the disclosure (10 mM) were prepared in acetonitrile and used immediately after preparation. 30 μL of the stock solutions was transferred into vials using a gastight syringe, yielding final concentrations of 0.1 mM. Substrates were then incubated long enough to ensure complete decomposition and equilibration of N2O with the headspace. For each sample, 60 μL of the headspace was sampled and injected three times using a gastight syringe with a sample lock. The N2O yield was averaged and reported relative to the standard, Angeli's salt. HNO yields were measured either at the half-life of the donor or after complete decomposition of the donor and are reported relative to the standard HNO donor, Angeli's salt, as determined by N2O headspace analysis (SEM±5%; n=3).

A short description of data set [3]: Decomposition kinetics via UV-VIS protocol (growth of pyrazolone byproduct absorbance). It is filed as physicochemical. Particulars: phosphate buffer; for decomposition (UV-VIS, in words): pH 7.4, 37° C. Here is the method:
(§1) A UV-VIS protocol was used to determine the decomposition kinetics of compounds 1, 3, 5 and 6. According to this protocol, decomposition of Compound 5, was monitored by examining the growth of the distinctive absorbance of the pyrazolone byproduct (λ=265 nm) at pH 7.4 and 37° C. in phosphate buffer as a function of pH (Guthrie, D. A., Kim, N. Y., Siegler, M. A.; Moore, C. D., Toscano, J. P. J. Am. Chem. Soc. 2012, 134, 1962-1965; and Guthrie, D. A.; Ho, A.; Takahashi, C. G.; Collins, A., Morris, M.; Toscano, J. P. J. Org. Chem. 2015, 80, 1338-1348). The decomposition of rate is pH-dependent, and based on the experimental kinetic data, the pKa of Compound 5 was estimated to be 10.7. Following this protocol, the decomposition kinetics for compounds […] were determined. […] Thus, the pKa values of Compounds 1 (10.0) and 3 (9.1) in 50% (v/v) aqueous ethanol were measured by titration with NaOH solution.

A short description of data set [4]: pKa by titration with NaOH solution. It is filed as physicochemical. Particulars: 50% (v/v) aqueous ethanol. Here is the method: as §1
Data set [5] in a line: Stability in the presence of a pyrazolone by 1H NMR (mechanistic study). The class given is physicochemical. As to the method:
A ^1H NMR Spectroscopy Protocol was used to confirm the formation of nitroso carbonyls following decomposition of compound 5. In this protocol, 0.5 mM Compound 5 was incubated in the presence of 0.5 mM 3,4-dimethyl-N-phenylpyrazolone in 0.25 M phosphate buffer with 0.2 mM DTPA at pH 7.4, 80% H2O, 10% D2O, and 10% DMSO-d6 at 37° C. under argon. Spectra were collected at the start of the experiment and after complete decomposition.
To eliminate the possibility of direct attack of 3,4-dimethyl-1-phenyl-1H-pyrazol-5(4H)-one on the amidic nitrogen of hydroxamic acid moiety in Compound 1 through a SN2 reaction (Glover, S. A.; Rauk, A.; Buccigross, J. M.; Campbell. J. J.; Hammond, G. P.; Guoning, M.; Andrews. L. E.: Gillson, A. M. Can. J. Chem. 2005, 83, 1492-1509), the stability of Compound 11 in the presence of 4-(acetyl-O-methoxyoxime)-N-phenyl-3-methyl-pyrazolone was confirmed by ^1H NMR.

Where [6] appears, read: HNO yield at the half-life of the donor.
[7] abbreviates: HNO yield after complete decomposition of the donor.

The compound `CO/N=C(\C)C1(N(O)C(C)=O)C(=O)N(c2ccccc2)N=C1C` (stereo not shown) [Compound 1, N-hydroxy-N-(4-(1-(methoxyimino)ethyl)-3-methyl-5-oxo-1-phenyl-4,5-dihydro-1H-pyrazol-4-yl)acetamide] had a half-life at 5 mM in data set [1] of 120 h. Besides, the “% HNO” value in data set [2] (setting [6]) is 82^a %. Moreover, in data set [3], the “decomposition (UV-VIS, in words)” value was “stable for 1 hour”. Also, the pKa in data set [4] amounted to 10.
In the same order, the values of `CO/N=C(\C)C1(N(O)C(=O)OC)C(=O)N(c2ccccc2)N=C1C` (stereo not shown) [Compound 3, Methyl hydroxy(4-(1-(methoxyimino)ethyl)-3-methyl-5-oxo-1-phenyl-4,5-dihydro-1H-pyrazol-4-yl)carbamate] are 48 h, 104^a %, “decomposed slowly” and 9.1.
In data set [1], `CO/N=C(\C)C1(N(O)C(=O)OC)C(=O)N(C)N=C1C` (stereo not shown) [Compound 4, Methyl hydroxy(4-(1-(methoxyimino)ethyl)-1,3-dimethyl-5-oxo-4,5-dihydro-1H-pyrazol-4-yl)carbamate] showed a half-life at 5 mM of 96 h. Moreover, the “% HNO” value in data set [2] (setting [6]) was 94^a %.
On to `CO/N=C(\C)C1(N(O)C(=O)N(C)C)C(=O)N(c2ccccc2)N=C1C` (stereo not shown) [Compound 5, 1-hydroxy-1-(4-(1-(methoxyimino)ethyl)-3-methyl-5-oxo-1-phenyl-4,5-dihydro-1H-pyrazol-4-yl)-3,3-dimethylurea], for which the half-life at 5 mM in data set [1] was determined as 0.417 h. Also, in data set [2] (setting [7]), the “% HNO” value is >95^b %. In data set [3] (estimated from pH-dependent decomposition kinetic data, 37° C.), the pKa was 10.7.
In turn, `CO/N=C(\C)C1(N(O)C(=O)N(C)C)C(=O)N(C)N=C1C` (stereo not shown) [Compound 6, 1-hydroxy-1-(4-(1-(methoxyimino)ethyl)-1,3-dimethyl-5-oxo-4,5-dihydro-1H-pyrazol-4-yl)-3,3-dimethylurea] registered a half-life at 5 mM in data set [1] of 0.767 h. In addition, the “% HNO” value in data set [2] (setting [7]) is on record as >95^b %.
Take `CC(=O)N(O)C1(C)C(=O)N(c2ccccc2)N=C1C` (stereo not shown) [Compound 11, N-hydroxy-N-(3,4-dimethyl-5-oxo-1-phenyl-4,5-dihydro-1H-pyrazol-4-yl)-acetamide]: the “stability in the presence of 4-(acetyl-O-methoxyoxime)-N-phenyl-3-methyl-pyrazolone” value in data set [5] was “confirmed”.

As usually defined, the half-life is how long it takes for the measured level to halve. A lower half-life goes with rapid decline. The pKa is the negative logarithm of the acid dissociation constant.
